{"source": "ChEMBL document CHEMBL5131572", "about": "“Identification of a Potent, Selective, and Brain-Penetrant Rho Kinase Inhibitor and its Activity in a Mouse Model of Huntington's Disease” (J Med Chem, 2022)", "key": {"[1]": {"assay": "Inhibition of ROCK in human PANC-1 cells assessed as decrease in MYPT1 phosphorylation at T850 residues measured after 1 hr by Western blot analysis", "assay_type": "cell-based", "conditions": "PANC-1, 1 h"}, "[2]": {"system": "Mus musculus", "assay": "In vivo inhibition of ROCK in po dosed HTT zQ175DN Knock-in mouse assessed as reduction in MYPT1 phosphorylation in striatum after 1 hr by MSD assay", "assay_type": "functional, organism-based", "conditions": "dose 1-20 mg/kg, DDE = dose-dependent effect"}, "[3]": {"assay": "Inhibition of ROCK in rat A7R5 cells assessed as increase in AKT phosphorylation measured after 30 mins by alphaLISA Surefire multiplex assay", "assay_type": "cell-based", "conditions": "A7R5, 0.5 h"}, "[4]": {"system": "Mus musculus", "assay": "Antihypertensive activity in CD1 mouse assessed as decrease in body temperature at 10 to 20 mg/kg, po measured after 0.5 to 4 hrs", "assay_type": "functional", "conditions": "dose 10-20 mg/kg, time 0.5-4 hrs"}, "[5]": {"system": "Mus musculus", "assay": "In vivo inhibition of ROCK in HTT zQ175DN Knock-in mouse assessed as reduction in MYPT1 phosphorylation in striatum at 10 mg/kg, po by MSD assay", "assay_type": "functional, organism-based", "conditions": "time 1-8 hrs, TDE = time-dependent effect"}, "[6]": {"assay": "Inhibition of ROCK in rat A7R5 cells assessed as cofilin serine 3 phosphorylation incubated for 1 hr by ICW assay", "conditions": "A7R5, 1 h"}, "[7]": {"system": "Mus musculus", "assay": "Antihypertensive activity in CD1 mouse assessed as decrease in systolic blood pressure at 10 to 20 mg/kg, po measured after 0.5 to 2 hrs", "assay_type": "functional", "conditions": "dose 10-20 mg/kg, time 0.5-2 hrs"}, "[8]": {"system": "Mus musculus", "assay": "Antihypertensive activity in CD1 mouse assessed as decrease in diastolic blood pressure at 10 to 20 mg/kg, po measured after 0.5 to 2 hrs", "assay_type": "functional", "conditions": "dose 10-20 mg/kg, time 0.5-2 hrs"}, "[9]": {"molecular_target": "T1, cGMP-dependent protein kinase 1 (Homo sapiens, UniProt Q13976)", "T1 sequence (Q13976 whole entry)": "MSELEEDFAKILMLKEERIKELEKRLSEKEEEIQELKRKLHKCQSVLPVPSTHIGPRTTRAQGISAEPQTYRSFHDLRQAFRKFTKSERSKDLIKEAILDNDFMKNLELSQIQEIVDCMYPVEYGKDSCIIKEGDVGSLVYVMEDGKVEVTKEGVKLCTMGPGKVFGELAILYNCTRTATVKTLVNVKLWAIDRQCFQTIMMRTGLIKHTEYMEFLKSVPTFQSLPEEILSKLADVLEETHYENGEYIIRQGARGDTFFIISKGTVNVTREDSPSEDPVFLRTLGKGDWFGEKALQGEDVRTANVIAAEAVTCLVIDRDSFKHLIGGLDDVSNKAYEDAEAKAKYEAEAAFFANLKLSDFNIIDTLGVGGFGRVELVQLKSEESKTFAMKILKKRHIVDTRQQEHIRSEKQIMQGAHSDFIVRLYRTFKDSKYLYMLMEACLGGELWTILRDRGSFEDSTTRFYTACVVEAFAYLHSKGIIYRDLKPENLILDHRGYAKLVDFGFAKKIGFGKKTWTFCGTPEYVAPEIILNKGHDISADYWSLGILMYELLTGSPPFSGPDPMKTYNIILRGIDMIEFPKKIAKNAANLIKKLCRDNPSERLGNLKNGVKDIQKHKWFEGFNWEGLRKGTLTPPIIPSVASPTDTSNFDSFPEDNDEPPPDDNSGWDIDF", "assay": "Inhibition of full length recombinant N-terminal GST-tagged human PKG expressed in baculovirus infected Sf9 insect cells using RSK as substrate preincubated for 15 mins followed by substrate addition and measured after 30 mins in presence of ATP by ADP Glo kinase assay"}, "[10]": {"system": "Mus musculus", "assay": "Antihypertensive activity in CD1 mouse assessed as decrease in mean arterial pressure at 10 to 20 mg/kg, po measured after 0.5 to 2 hrs", "assay_type": "functional", "conditions": "dose 10-20 mg/kg, time 0.5-2 hrs"}, "[11]": {"system": "Mus musculus", "assay": "Antihypertensive activity in CD1 mouse assessed as decrease in heart rate pressure at 10 to 20 mg/kg, po measured after 0.5 to 2 hrs", "conditions": "dose 10-20 mg/kg, time 0.5-2 hrs"}, "[12]": {"molecular_target": "Rho-associated protein kinase 2 (Homo sapiens, UniProt O75116)", "sequence (O75116 whole entry, the tested form may be a part)": "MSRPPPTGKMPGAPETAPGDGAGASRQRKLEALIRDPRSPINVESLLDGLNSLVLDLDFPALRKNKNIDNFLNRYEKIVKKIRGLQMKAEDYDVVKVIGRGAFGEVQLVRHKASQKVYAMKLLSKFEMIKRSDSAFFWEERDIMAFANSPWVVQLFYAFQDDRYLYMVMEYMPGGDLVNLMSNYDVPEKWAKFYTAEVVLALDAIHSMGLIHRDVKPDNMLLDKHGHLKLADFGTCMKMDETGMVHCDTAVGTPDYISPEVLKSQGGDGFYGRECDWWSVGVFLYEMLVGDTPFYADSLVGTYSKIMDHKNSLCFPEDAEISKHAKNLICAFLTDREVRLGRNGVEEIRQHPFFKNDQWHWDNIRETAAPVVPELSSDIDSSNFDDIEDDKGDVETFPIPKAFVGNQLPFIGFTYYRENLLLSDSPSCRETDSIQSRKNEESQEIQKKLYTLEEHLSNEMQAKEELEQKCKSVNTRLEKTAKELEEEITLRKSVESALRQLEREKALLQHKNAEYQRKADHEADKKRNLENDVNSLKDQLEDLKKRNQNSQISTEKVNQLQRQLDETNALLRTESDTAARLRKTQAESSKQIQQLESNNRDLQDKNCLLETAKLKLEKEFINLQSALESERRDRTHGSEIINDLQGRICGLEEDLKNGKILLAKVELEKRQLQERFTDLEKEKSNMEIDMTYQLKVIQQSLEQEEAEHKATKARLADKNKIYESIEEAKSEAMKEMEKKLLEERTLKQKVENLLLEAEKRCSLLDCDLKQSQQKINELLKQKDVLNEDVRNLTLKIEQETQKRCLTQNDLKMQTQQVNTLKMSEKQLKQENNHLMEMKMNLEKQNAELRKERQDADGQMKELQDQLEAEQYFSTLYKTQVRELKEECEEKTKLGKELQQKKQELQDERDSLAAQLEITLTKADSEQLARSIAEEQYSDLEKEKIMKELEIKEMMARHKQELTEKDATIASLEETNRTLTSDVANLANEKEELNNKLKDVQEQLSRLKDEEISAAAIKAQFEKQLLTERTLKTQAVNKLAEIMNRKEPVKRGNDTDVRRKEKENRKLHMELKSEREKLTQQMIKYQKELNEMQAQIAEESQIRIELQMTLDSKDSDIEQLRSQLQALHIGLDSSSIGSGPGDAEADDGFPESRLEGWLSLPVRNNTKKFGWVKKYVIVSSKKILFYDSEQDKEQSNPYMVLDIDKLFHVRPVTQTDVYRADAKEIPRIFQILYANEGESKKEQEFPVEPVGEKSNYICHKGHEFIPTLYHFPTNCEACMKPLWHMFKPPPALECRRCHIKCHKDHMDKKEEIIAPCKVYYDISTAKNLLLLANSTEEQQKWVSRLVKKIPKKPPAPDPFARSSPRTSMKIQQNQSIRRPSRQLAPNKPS", "assay": "Inhibition of recombinant N-terminal GST-tagged human ROCK2 (5 to 554 residues) expressed in baculovirus infected Sf9 cells using S6K as substrate incubated for 30 mins in presence of ATP by ADP Glo kinase assay"}, "[13]": {"molecular_target": "LIM domain kinase 2 (Homo sapiens, UniProt P53671)", "sequence (P53671 whole entry, the tested form may be a part)": "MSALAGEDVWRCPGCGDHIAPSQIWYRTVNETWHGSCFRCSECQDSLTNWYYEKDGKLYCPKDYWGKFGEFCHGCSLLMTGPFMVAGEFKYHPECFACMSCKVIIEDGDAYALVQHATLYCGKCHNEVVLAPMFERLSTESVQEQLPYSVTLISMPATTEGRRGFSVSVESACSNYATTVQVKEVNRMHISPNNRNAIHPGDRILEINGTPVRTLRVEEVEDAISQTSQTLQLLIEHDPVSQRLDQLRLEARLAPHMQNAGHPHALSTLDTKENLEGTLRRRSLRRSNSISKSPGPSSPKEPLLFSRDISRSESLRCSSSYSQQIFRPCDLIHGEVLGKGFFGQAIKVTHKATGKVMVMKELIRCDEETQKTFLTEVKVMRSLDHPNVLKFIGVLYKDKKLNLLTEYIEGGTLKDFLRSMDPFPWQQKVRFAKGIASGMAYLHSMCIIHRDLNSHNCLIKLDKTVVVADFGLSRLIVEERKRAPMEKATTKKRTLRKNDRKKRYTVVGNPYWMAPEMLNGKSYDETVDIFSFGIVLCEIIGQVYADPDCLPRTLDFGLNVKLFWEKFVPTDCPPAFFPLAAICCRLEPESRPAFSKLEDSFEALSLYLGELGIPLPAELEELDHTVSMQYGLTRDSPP", "assay": "Inhibition of wild-type human full length LIMK2 (M1 to P638 residues) expressed in bacterial expression system by Kinomescan method"}}}
{"smiles": "COc1cccc([C@@H](C)NC(=O)N2CCN(c3ccncc3F)C[C@H]2C)c1", "values": [{"measurement": "IC50", "setting": "[1]", "result": 14, "unit": "nM"}, {"measurement": "inhibition", "setting": "[2]", "result": "Dde"}, {"measurement": "EC50", "setting": "[3]", "result": 28, "unit": "nM"}, {"measurement": "T", "setting": "[4]", "result": 2.5, "unit": "°C"}, {"measurement": "inhibition", "setting": "[5]", "result": "Tde"}, {"measurement": "IC50", "setting": "[6]", "result": 8, "unit": "nM"}, {"measurement": "Activity", "setting": "[7]", "result": 59.5, "unit": "mmHg"}, {"measurement": "Activity", "setting": "[8]", "result": 56.4, "unit": "mmHg"}, {"measurement": "IC50", "setting": "[9]", "result": 2250, "unit": "nM"}, {"measurement": "Activity", "setting": "[10]", "result": 61, "unit": "mmHg"}, {"measurement": "Activity", "setting": "[11]", "result": 107, "unit": "bpm"}, {"measurement": "IC50", "setting": "[12]", "result": 3, "unit": "nM"}, {"measurement": "IC50", "setting": "[13]", "result": 25, "unit": "nM"}]}
